Laboratory results from article PMC6278284, “Synthesis of Jacaranone-Derived Nitrogenous Cyclohexadienones and Their Antiproliferative and Antiprotozoal Activities” (Molecules, 2018).
Like-named read-outs stand apart in the source and are kept apart here.

Experiments:
[1] = test system: P. falciparum, strain NF54, erythrocytic stages; assay: In vitro growth inhibition assay of Plasmodium falciparum NF54 ([3H]-hypoxanthine incorporation); format: cell-based; conditions: for IC50: Plasmodium falciparum; for SI (IC50 in L6 cells/IC50 P. falciparum): ratio IC50 L6 / IC50 P. falciparum NF54
Protocol: In vitro activity against erythrocytic stages of P. falciparum was determined by a modified [^3H]-hypoxanthine incorporation assay using the drug-sensitive NF54 strain and the standard drug, chloroquine (Sigma C6628). Briefly, parasite cultures incubated in RPMI 1640 medium with 5% AlbuMAX^TM (without hypoxanthine) were exposed to serial drug dilutions in microtiter plates. After 48 h of incubation at 37 °C in a reduced oxygen atmosphere, 0.5 μCi [^3H]-hypoxanthine was added to each well of the plate. Cultures were incubated for a further 24 h before they were harvested onto glass-fiber filters and washed with distilled water. The radioactivity was counted using a Betaplate^TM liquid scintillation counter (Wallac, Zurich). The results were recorded as counts per minute (CPM) per well at each drug concentration and expressed as a percentage of the untreated controls. IC50 values were calculated from the sigmoidal inhibition curves using Microsoft Excel.

[2] = test system: T. brucei rhodesiense, strain STIB900 trypomastigote forms; assay: In vitro growth inhibition assay of Trypanosoma brucei rhodesiense (Alamar Blue); format: cell-based; conditions: for IC50: Trypanosoma brucei, 72 h, read-out: T.b.rhod. IC50; for SI (IC50 in L6 cells/IC50 T. b. rhodesiense): ratio IC50 L6 / IC50 T. b. rhodesiense STIB900
Protocol: Trypanosoma brucei rhodesiense, STIB 900 strain, and the standard drug, melarsoprol, were used for the assay. Minimum Essential Medium (50 μL) supplemented with 25 mM HEPES, 1g/L additional glucose, 1% MEM non-essential amino acids (100×), 0.2 mM 2-mercaptoethanol, 1 mM Na-pyruvate, and 15% heat-inactivated horse serum was added to each well of a 96-well microtiter plate. Serial drug dilutions of 11 three-fold dilution steps covering a range from 100 to 0.002 μg/mL were prepared. Then, 4 × 10^3 bloodstream forms of T. b. rhodesiense (STIB 900) in 50 μL were added to each well and the plate was incubated at 37 °C under a 5% CO2 atmosphere for 72 h. 10 μL Alamar Blue (resazurin, 12.5 mg in 100 mL double-distilled water) was then added to each well and incubation continued for a further 2–4 h. Then, the plates were read with a Spectramax Gemini XS microplate fluorometer (Molecular Devices Cooperation, Sunnyvale, CA, USA) using an excitation wavelength of 536 nm and an emission wavelength of 588 nm. The IC50 values were calculated from the sigmoidal inhibition curves using the microplate reader software, Softmax Pro (Molecular Devices Cooperation, Sunnyvale, CA, USA). Melarsoprol was used as the control.

[3] = test system: L6 cells rat skeletal myoblasts; assay: Cytotoxicity against L6 cells (Alamar Blue); format: cell-based; conditions: read-out: Cyt. L6 IC50
Protocol: Assays were performed in 96-well microtiter plates, each well containing 100 μL of RPMI 1640 medium supplemented with 1% L-glutamine (200 mM) and 10% foetal bovine serum, and 4000 L6 cells (a […] cell line derived from rat skeletal myoblasts). Serial drug dilutions of 11 threefold dilution steps covering a range from 100 to 0.002 μg/mL were prepared. After 72 h of incubation, the plates were inspected under an inverted microscope to assure growth of the controls and sterile conditions. 10 μL of Alamar Blue solution was then added to each well and the plates incubated for another 2 h. Then, the plates were read with a Spectramax Gemini XS microplate fluorometer (Molecular Devices Cooperation, Sunnyvale, CA, USA) using an excitation wavelength of 536 nm and an emission wavelength of 588 nm. The IC50 values were calculated by linear regression from the sigmoidal dose inhibition curves using the microplate reader software, Softmax Pro (Molecular Devices Cooperation, Sunnyvale, CA, USA). Podophyllotoxin (Sigma P4405) was used as the control.

CCRF-CEM leukemia cells = assay: XTT viability assay, CCRF-CEM; format: cell-based; conditions: Homo sapiens, read-out: metabolic active cells in % of control; for viability at 5 µg/mL / viability at 50 µg/mL: 72 h
Protocol: (§1) Human CCRF-CEM leukemia and MDA-MB-231 breast cancer cells lines were kept in RPMI1640 medium (Gibco®, ThermoFisher Scientific Inc., New York, NY, USA), supplemented with 2 mM L-glutamine (Gibco®), 10% heat-inactivated foetal bovine serum (FBS, Gibco®), 100 units/mL Penicillin (PAA), and 100 µg/mL Streptomycin (Gibco®) (1% Pen/Strep). HCT-116 and U251 cells were cultured in high-glucose Dulbecco’s Modified Eagle Medium (DMEM, Gibco®) containing 2 mM L-glutamine, 10% FBS, and 1% Pen/Strep. MRC-5 cells were grown in Minimum Essential Medium (MEM, Gibco®) supplemented with 2 mM L-glutamine, 10% FBS, and 1% Pen/Strep. All cells were kept in a humidified 5% CO2 atmosphere at 37 °C and passaged at 90% confluence.
(§2) A Cell Proliferation Kit II (XTT) was purchased from Sigma-Aldrich and performed as described previously and in accordance with the manufacturer’s protocol. In brief, adherent cell lines were seeded at a density of 50,000 cells/mL or 100,000 cells/mL (MRC-5) in 96 well plates (100 µL, flat bottom) and grown for 24 h before test compounds were added. Suspension cells (CCRF-CEM) were seeded at 100,000 cells/mL and test compounds were added immediately. After 72 h, XTT solution was added for another 90 min or 4 h (CCRF-CEM cells) and absorbance was measured at 490 nm with a reference wave length of 650 nm (Hidex Sense Microplate Reader 425-301, Hidex, Turku, Finland). Results are expressed as a percentage of the vehicle-treated (0.5% DMSO) control cells. Vinblastine served as the positive control (0.01 µg/mL).

[4] = test system: MDA-MB-231 breast cancer cells; assay: XTT viability assay, MDA-MB-231; format: cell-based; conditions: Homo sapiens, read-out: metabolic active cells in % of control; for viability at 5 µg/mL: MDA-MB-231, 5 µg/mL; for viability at 5 µg/mL / viability at 50 µg/mL: 72 h; for viability at 50 µg/mL: MDA-MB-231, 50 µg/mL
Protocol: as §1, §2

[5] = test system: HCT-116 colon cancer cells; assay: XTT viability assay, HCT-116; format: cell-based; conditions: Homo sapiens, read-out: metabolic active cells in % of control; for viability at 5 µg/mL: HCT 116, 5 µg/mL; for viability at 5 µg/mL / viability at 50 µg/mL: 72 h; for viability at 50 µg/mL: HCT 116, 50 µg/mL
Protocol: as §1, §2

U251 glioblastoma cells = assay: XTT viability assay, U251; format: cell-based; conditions: Homo sapiens, U-251, read-out: metabolic active cells in % of control; for viability at 5 µg/mL: U251, 5 µg/mL; for viability at 5 µg/mL / viability at 50 µg/mL: 72 h; for viability at 50 µg/mL: U251, 50 µg/mL
Protocol: as §1, §2

[6] = test system: MRC-5 non-tumorigenic lung fibroblasts; assay: XTT viability assay, MRC-5; format: cell-based, human; conditions: Homo sapiens, MRC5, read-out: metabolic active cells in % of control; for viability at 5 µg/mL: MRC-5, 5 µg/mL; for viability at 5 µg/mL / viability at 50 µg/mL: 72 h; for viability at 50 µg/mL: MRC-5, 50 µg/mL
Protocol: as §1, §2

[7] = strain NF54, erythrocytic stages, read-out: P. falc. IC50
[8] = strain STIB900, trypomastigote forms
[9] = L6 rat skeletal myoblasts, 72 h

| Compound | IC50 [1, 7] | IC50 [2, 8] | melting point | SI (IC50 in L6 cells/IC50 P. falciparum) [1] | SI (IC50 in L6 cells/IC50 T. b. rhodesiense) [2] | IC50 [3, 9] | viability at 5 µg/mL (CCRF-CEM leukemia cells) | viability at 50 µg/mL (CCRF-CEM leukemia cells) | viability at 5 µg/mL [4] | viability at 50 µg/mL [4] | viability at 5 µg/mL [5] | viability at 50 µg/mL [5] | viability at 5 µg/mL (U251 glioblastoma cells) | viability at 50 µg/mL (U251 glioblastoma cells) | viability at 5 µg/mL [6] | viability at 50 µg/mL [6] | other results |
| --- | --- | --- | --- | --- | --- | --- | --- | --- | --- | --- | --- | --- | --- | --- | --- | --- | --- |
| CCN(CC)CCCC(C)Nc1ccnc2cc(Cl)ccc12 (centres unmarked) [Chl., Chloroquine, reference compound] |  |  |  |  |  |  |  |  |  |  |  |  |  |  |  |  | IC50 ([1]; NF54, read-out: P. falc. IC50): 0.002 µM |
| O=C1C=CC(O)(CCN2C(=O)c3ccccc3C2=O)C=C1 [Compound 13a, N-[2-(1-Hydroxy-4-oxocyclohexa-2,5-dien-1-yl)ethyl]phthalimide] | 3.78 µM | 1.58 µM | 161 to 162 °C | 1.3 | 3.2 | 5.08 µM | 4.42% | 1.15% | 37.8% | 17.4% | 55.4% | 1.76% | 90.7% | 3.21% | 43.7% | 1.93% |  |
| O=C1C=CC(O)(CCN2C(=O)c3cc(Cl)c(Cl)cc3C2=O)C=C1 [Compound 13d, 4,5-Dichloro-N-[2-(1-hydroxy-4-oxocyclohexa-2,5-dien-1-yl)ethyl]phthalimide] | 3.24 µM | 5.71 µM | 213 to 214 °C | 1.9 | 1.1 | 6.28 µM | 13.8% | 3.33% | 28.6% | 24.8% | 41.2% | 0.44% | 72.1% | 1.79% | 46.4% | 1.01% |  |
| O=C1C=CC(O)(CCN2C(=O)C(Cl)=C(Cl)C2=O)C=C1 [Compound 13e, 3,4-Dichloro-N-[2-(1-hydroxy-4-oxocyclohexa-2,5-dien-1-yl)ethyl]maleimide] | 74.4 µM | 2.26 µM | 168 to 169 °C | 0.1 | 4.5 | 10.3 µM | -2.6% | 0.59% | 81.3% | 9.53% | 45.3% | -0.43% | 95.6% | 1.95% | 97% | 0.38% |  |
| Nc1nc(N)nc(Nc2ccc([As]3SCC(CO)S3)cc2)n1 (centres unmarked) [Mel., melarsoprol, reference compound] |  |  |  |  |  |  |  |  |  |  |  |  |  |  |  |  | IC50 [2]: 0.004 µM |
| COc1cc([C@@H]2c3cc4c(cc3[C@H](O)[C@H]3COC(=O)[C@H]23)OCO4)cc(OC)c1OC [Pod., podophyllotoxin, reference compound] |  |  |  |  |  |  |  |  |  |  |  |  |  |  |  |  | IC50 ([3]; Rattus norvegicus, L6, 72 h): 0.007 µM |
| CC[C@]1(O)C[C@@H]2CN(CCc3c([nH]c4ccccc34)[C@@](C(=O)OC)(c3cc4c(cc3OC)N(C)[C@H]3[C@@](O)(C(=O)OC)[C@H](OC(C)=O)[C@]5(CC)C=CCN6CC[C@]43[C@@H]65)C2)C1 [VBN, Vinblastine, reference compound] |  |  |  |  |  |  |  |  |  |  |  |  |  |  |  |  | viability at 0.01 µg/mL (CCRF-CEM leukemia cells; 0.01 µg/mL, positive control): 23.6 ± 7.62%; viability at 0.01 µg/mL ([4]; MDA-MB-231, 0.01 µg/mL, positive control): 42 ± 7.97%; viability at 0.01 µg/mL ([5]; HCT 116, 0.01 µg/mL, positive control): 39 ± 5.1%; viability at 0.01 µg/mL (U251 glioblastoma cells; U251, 0.01 µg/mL, positive control): 45.3 ± 3.81%; viability at 0.01 µg/mL ([6]; MRC-5, 0.01 µg/mL, positive control): 63.8 ± 5.29% |

Further lines, with some results ahead:

| IC50 [1, 7] | IC50 [2, 8] | melting point | Compound | SI (IC50 in L6 cells/IC50 P. falciparum) [1] | SI (IC50 in L6 cells/IC50 T. b. rhodesiense) [2] | IC50 [3, 9] | viability at 5 µg/mL (CCRF-CEM leukemia cells) | viability at 50 µg/mL (CCRF-CEM leukemia cells) | viability at 5 µg/mL [4] | viability at 50 µg/mL [4] | viability at 5 µg/mL [5] | viability at 50 µg/mL [5] | viability at 5 µg/mL (U251 glioblastoma cells) | viability at 50 µg/mL (U251 glioblastoma cells) | viability at 5 µg/mL [6] | viability at 50 µg/mL [6] | other results |
| --- | --- | --- | --- | --- | --- | --- | --- | --- | --- | --- | --- | --- | --- | --- | --- | --- | --- |
| 8.63 µM | 6.93 µM |  | O=C1C=CC(O)(CCN2C(=O)CCC2=O)C=C1 [Compound 13c, N-[2-(1-Hydroxy-4-oxocyclohexa-2,5-dien-1-yl)ethyl]succinimide] |  |  | 9.9 µM | 79.1% | 2.15% | 79.8% | 5.72% | 99% | 1.1% | 93.3% | 0.59% | 139% | 3.55% |  |
| 3.04 µM | 1.7 µM | 135 to 136 °C | O=C1C=CC(O)(CCN2C(=O)C3CCCCC3C2=O)C=C1 (centres unmarked) [Compound 13h, N-[2-(1-Hydroxy-4-oxocyclohexa-2,5-dien-1-yl)ethyl]hexahydrophthalimide] | 1.0 | 1.7 | 2.96 µM | 15.7% | 0.69% | 70.8% | 16.4% | 44.3% | 0.49% | 74.9% | 0.18% | 57.6% | 0.76% |  |
| 6.18 µM | 1.52 µM | 127 to 128 °C | O=C1C=CC(O)(CCN2C(=O)C3CCCCC3C2O)C=C1 (centres unmarked) [Compound 15, 3-Hydroxy-N-[2-(1-hydroxy-4-oxocyclohexa-2,5-dien-1-yl)ethyl]octahydroisoindole-1-one] | 2.0 | 8.3 | 12.6 µM | 42.4% | 0.57% | 105% | 6.05% | 111% | 1.44% | 97.6% | 2.24% | 135% | 4.47% |  |
